Test results taken from PubChem BioAssay (NCI).
Several values for one entry are separate records, joined by “and”; a condition that tells them apart may be missing. Identical values can stand only once.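 Growth conditions: 96-well plates. Treatment: test compound, 48 hours, 5 concentrations. Analysis: linear interpolation between bracketing concentrations; unreached endpoints set to highest concentration. GI50 is the concentration that inhibits growth by half. TGI marks complete inhibition of growth.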

Tested on: MDA-MB-468 breast
Test: NCI tumour cell line growth inhibition, 48 h

SMILES | GI50 | TGI
CN(C)CCCNC(=O)c1cncnc1Nc1ccc(OCc2cccc(F)c2)c(Cl)c1 | 1550 nM | 3020 nM
O=C(NCc1ccncc1)C12CC3CC(C1)CC(c1ccc(Cl)cc1)(C3)C2 | 6580 nM | 21100 nM
Cc1cc(Oc2ccc3nc(COc4ccc(CC5SC(=O)NC5=O)cc4)n(C)c3c2)cc(C)c1N (configuration not stated) | 25900 nM | > 93600 nM
COc1cc(OC)c(NC(=O)c2cc3ccccc3cc2O)cc1Cl | 3120 nM | 8240 nM
C/C(=C(\c1ccc(OCCN2CCCCCC2)cc1)c1ccc(OC(=O)Cc2ccccc2)cc1)c1ccc(Cl)cc1 | 1990 nM | 4380 nM
COc1cc(-c2ncn(/C=C\C(=O)OC(C)C)n2)cc(C(F)(F)F)c1 | 126 nM and 141 nM | 670 nM and 1240 nM
Cc1nc2cnc(N)c(C#Cc3cncc(C(=O)Nc4ccc(Cl)c(C(F)(F)F)c4)c3)c2nc1C | 2870 nM | 11600 nM
CCN(CC)CCCC(C)N=c1cc(Nc2cc(=NC(C)CCCN(CC)CC)c3cc(OC)ccc3o2)oc2ccc(OC)cc12 (configuration not stated) | 543 nM | 1190 nM
CN1CC(CNC(=O)OCc2ccccc2)CC2c3cccc4c3c(cn4C)CC21 (configuration not stated) | 1610 nM | 3120 nM
O=C(Nc1nc2ccc(F)cc2s1)c1cccnc1Nc1ccc(Cl)cc1 | 1610 nM | > 100000 nM
CCc1cc2c(cc1N1CCC(N3CCOCC3)CC1)C(C)(C)c1[nH]c3cc(C#N)ccc3c1C2=O | 1800 nM and 2050 nM and 2140 nM | 5250 nM and 5670 nM and 7850 nM
c1ccc(CN=C(NCc2ccccc2)NCc2ccccc2)cc1 | 2290 nM | 5380 nM
CCS(=O)(=O)Nc1cccc(Nc2c3cccc(C)c3nc3c(C)cccc23)c1OC | 2240 nM | 25500 nM
C[C@H]1[C@H]2[C@H]3CC[C@@H]4[C@@]5(C)C/C(=C/c6cccnc6)C(=O)C(C)(C)[C@@H]5CC[C@@]4(C)[C@]3(C)CC[C@]23CO[C@]1(C)[C@@H](C(=O)/C=C\c1cccnc1)C3 | 864 nM | 2390 nM
COc1ccc(-c2c(-c3cc(OC)c(OC)c(OC)c3)noc2N)cc1 | < 14.3 nM | 1100 nM
COc1cnc2c(c1)C(=O)c1c-2n(CCCNC(C)C)c(=O)c2cc(F)ccc12 | 226 nM | 702 nM
CC/C(=C(/c1ccc(O)cc1)c1ccc(OCCN2CCCCC2)cc1)c1ccc(OC)cc1 | 1370 nM | 3220 nM
Cc1ccc(-c2nc(N3CCCNCC3)c3oc(-c4ccccc4)nc3n2)cc1 | 1550 nM | 3240 nM

SMILES | GI50 | TGI
COc1ccc(-c2nc(N3CCN(C(=O)C4CCCCC4)CC3)c3c4c(sc3n2)CCCC4)cc1 | 29100 nM | > 100000 nM
CCN(CC)CCNc1cc(-c2cccc(OC(F)(F)F)c2)nc2ccc(N3CCCC3)cc12 | 1640 nM and 1840 nM | 3180 nM and 3610 nM
CCOC(=O)[C@@H](C)C[C@H](Cc1ccccc1)NC(=O)c1csc([C@@H](C[C@H](C(C)C)N(C)C(=O)[C@H](CC)NC(=O)[C@H]2CCCCN2C)OC(C)=O)n1 | < 1.67 nM | > 12600 nM
CCc1ccc2c(c1)N(CCO)C1=C(C(=O)OC1)C2c1cccc(Cl)c1 (configuration not stated) | 239 nM | 861 nM
COc1cccc2c1c(C1=C(c3cn(C)c4ccccc34)C(=O)NC1=O)cn2C | > 25000 nM | > 25000 nM
CNC(=O)Oc1cc(C)c(/C=C/c2cncc(C(=O)NC)c2)c(C)c1 | 11000 nM | > 25000 nM
O=C(NO)c1ccc(Cn2c(=O)n(-c3ccccc3F)c(=O)c3ccccc32)cc1 | 1180 nM | 3210 nM
COc1cc(-c2nn(-c3cccc(NC(=O)c4ccc(N5CCOCC5)c(C(F)(F)F)c4)c3)cc2-c2ccncc2)ccc1Cl | 183 nM | 781 nM
CCCCCCc1nc2nc(Cl)c(Cl)nc2[nH]1 | 2900 nM | > 100000 nM
Cc1cc(O)cc(C)c1/C=C/c1cncc(-c2nn[nH]n2)c1 | > 25000 nM | > 25000 nM
O=C(/C(=C/c1ccc([N+](=O)[O-])cc1)SCc1ccc(F)cc1)c1ccc(Cl)cc1 | 9460 nM | 38700 nM
CC1=C([Te]c2ccc(O)cc2)C(=O)c2ccccc2C1=O | 697 nM | 2170 nM
Nc1c(C(=O)c2ccc(CCCN3CCOCC3)cc2)cnn1-c1ccc(F)cc1 | 8190 nM | > 25000 nM
COC(=O)[C@H](Cc1ccc(O)cc1)NC(=O)[C@@H](OC)[C@@H]1Cc2cc3cc(OC4CC(OC5CC(O)C(O)C(C)O5)C(O)C(C)O4)c(C)c(O)c3c(O)c2C(=O)[C@H]1OC1CC(OC2CC(OC3CC(C)(O)C(O)C(C)O3)C(O)C(C)O2)C(O)C(C)O1 (some centres not stated) | 67.2 nM | 839 nM
C=CN(C)S(C)(=O)=O | > 100000 nM | > 100000 nM
O=S(=O)(Nc1cc(Cl)ccc1Cl)c1ccc(-c2cnc(C3CC3)o2)cc1 | 821 nM | 30100 nM
O=C1OC(c2ccccc2)(c2cc(Br)c(O)c(Br)c2)c2ccccc21 (configuration not stated) | 27000 nM | 90900 nM
Cc1ncsc1-c1ccc(CNC(=O)[C@@H]2C[C@@H](O)CN2C(=O)[C@@H](NC(=O)C2(C#N)CC2)C(C)(C)C)cc1 | 54500 nM | > 100000 nM
